We go through two compounds from article PMC9387934, “Randomized single oral dose phase 1 study of safety, tolerability, and pharmacokinetics of Iminosugar UV-4 Hydrochloride (UV-4B) in healthy subjects” (PLoS Neglected Tropical Diseases, 2022).

“And” between values parts separate entries of the source, which are not always exact repeats. Identical values can stand only once. Like-named read-outs stand apart in the source and are kept apart here.

The nature of data set [1]: Phase 1a single ascending dose study: UV-4 in pooled urine, urinary recovery and renal clearance. The format is in vivo, human. Particulars: for dose excreted: human, urine, oral, 48 hours. On the procedure: Serial blood samples were collected at pre-dose (0 hour) and 0.5, 1, 1.5, 2, 2.5, 3, 4, 6, 9, 12, 18, 24, 36, and 48 hours post-dose for assessment of UV-4 concentrations in plasma. Pooled urine samples were collected at pre-dose (-12 to 0 hour) and from 0 to 6, 6 to 12, 12 to 24, and 24 to 48 hours post-dose for assessment of UV-4 concentrations in urine. Plasma and urine concentrations of UV-4 were determined by means of validated, sensitive, and specific high-performance liquid chromatography/tandem mass spectrometric (LC-MS/MS) assays. UV-4 plasma and urine concentrations and PK parameters were listed and summarized by dose, as appropriate. Only the 48 subjects who received active investigational product were included in the PK analysis population.
8.2.3 Specimen Preparation, Handling, and Shipping
8.2.3.1 Instructions for Specimen Preparation, Handling, and Storage
The collected PK blood samples (2 mL) will be placed on ice after blood draw, and within 1 hour centrifuged at room temperature at approximately 3000 revolutions per minute for 15 minutes. Plasma will then be harvested and split into 4 aliquots of approximately 250 μ L and stored frozen at -20°C until shipped.
Urine samples (approximately 10 mL) for determination of UV-4 concentrations in urine will be taken from the total volume provided during each collection period. The total volume of each urine collection will be recorded along with the start/stop time for each urine collection interval.
Analysis of plasma and urine for UV-4 will be performed by the qualified bioanalytical laboratory, Quintiles Bioservices, Inc., Ithaca, New York 14950. Instructions for the proper preparation, handling, storage and shipping of specimens will be provided separately in a study-specific laboratory manual (i.e., Biopacket).
8.2.3.2 Specimen Shipment […]
The following single-dose urine PK parameters will be estimated from the UV-4 urine concentration-time data collected, as appropriate:
Ae Amount of UV-4 excreted in urine unchanged, calculated for each collection interval and cumulatively across intervals fe Fraction of UV-4 excreted in urine unchanged, calculated for each collection interval and cumulatively across intervals […]
Additional UV-4 PK parameters may be calculated at the discretion of the […]
Plasma concentrations and plasma and urine PK parameters will be summarized by treatment using descriptive statistics, as appropriate. Figures for the arithmetic mean (and SD) concentration-time data will be presented for all doses on both a linear and semi-logarithmic scale. Individual concentration-time data will be graphically presented on linear and semi-logarithmic scales. Scatter plots of individual and geometric mean PK parameters versus dose will be presented. Additional graphical presentations of PK data may be added at the discretion of the PK analyst.
Dose proportionality of Cmax, AUC(0-last), and AUC(0-inf) will be assessed graphically and statistically using the power model approach with the logarithm of PK parameters AUC(0-inf) and Cmax as the dependent variables and the logarithm of the dose as the independent variable: ([AUC(0-inf), AUC(0-last), or Cmax]=α *doseβ).
11.4.7 Deviation from Original Analysis Plan
Deviations from the formal statistical analysis plan will be noted in the final Clinical Study

On the set-up of data set [2]: method as in Investigator’s Brochure (IB). Particulars: dogs, ref Investigator’s Brochure (IB), cited from earlier work.

Regarding `COCCCCCCCCCN1C[C@H](O)[C@@H](O)[C@H](O)[C@H]1CO` [UV4], the “CONCENTRATION UV4 in human urine” value was “<LLOQ (0.500) ng/mL” in data set [1] (Cohort 1, nominal day 1, nominal hour 0 (pre-dose), individual subjects); 650 ng/mL and 868 ng/mL in data set [1] (Cohort 1, nominal day 1, nominal hour 6, individual subjects); 414 ng/mL and 455 ng/mL in data set [1] (Cohort 1, nominal day 1, nominal hour 12, individual subjects); 99.1 ng/mL and 451 ng/mL in data set [1] (Cohort 1, nominal day 2, nominal hour 24, individual subjects); 74.6 ng/mL and 166 ng/mL in data set [1] (Cohort 1, nominal day 2, nominal hour 48, individual subjects); “<LLOQ (0.500) ng/mL” in data set [1] (Cohort 3, nominal day 1, nominal hour 0 (pre-dose), individual subjects). In addition, the “CONCENTRATION UV4 in human urine” value in data set [1] (Cohort 3, nominal day 1, nominal hour 6, individual subjects) is 6240 ng/mL and 8650 ng/mL and 11700 ng/mL; in data set [1] (Cohort 3, nominal day 1, nominal hour 12, individual subjects) it was 8820 ng/mL and 2090 ng/mL and 1200 ng/mL and 11200 ng/mL; in data set [1] (Cohort 3, nominal day 2, nominal hour 24, individual subjects), 3300 ng/mL and 754 ng/mL and 614 ng/mL and 3690 ng/mL; in data set [1] (Cohort 3, nominal day 2, nominal hour 48, individual subjects), 721 ng/mL and 248 ng/mL and 147 ng/mL and 900 ng/mL; in data set [1] (Cohort 4, nominal day 1, nominal hour 0 (pre-dose), individual subjects) it was “<LLOQ (0.500) ng/mL and 1.11 ng/mL”; in data set [1] (Cohort 4, nominal day 1, nominal hour 6, individual subjects), 46400 ng/mL and 48400 ng/mL and 30900 ng/mL and 140000 ng/mL and 54900 ng/mL and 36000 ng/mL. Also, the “CONCENTRATION UV4 in human urine” value is 3970 ng/mL and 24500 ng/mL and 26000 ng/mL and 15000 ng/mL and 33100 ng/mL and 11200 ng/mL in data set [1] (Cohort 4, nominal day 1, nominal hour 12, individual subjects); 1230 ng/mL and 7560 ng/mL and 8120 ng/mL and 8370 ng/mL and 4550 ng/mL and 3920 ng/mL in data set [1] (Cohort 4, nominal day 2, nominal hour 24, individual subjects); 367 ng/mL and 2090 ng/mL and 1260 ng/mL and 1810 ng/mL and 473 ng/mL and 648 ng/mL in data set [1] (Cohort 4, nominal day 2, nominal hour 48, individual subjects); “<LLOQ (0.500) ng/mL” in data set [1] (Cohort 5, nominal day 1, nominal hour 0 (pre-dose), individual subjects); 122000 ng/mL and 104000 ng/mL and 75800 ng/mL and 62800 ng/mL and 65800 ng/mL and 68800 ng/mL in data set [1] (Cohort 5, nominal day 1, nominal hour 6, individual subjects); 17100 ng/mL and 26900 ng/mL and 16200 ng/mL and 22000 ng/mL and 21200 ng/mL and 18200 ng/mL in data set [1] (Cohort 5, nominal day 1, nominal hour 12, individual subjects). The “CONCENTRATION UV4 in human urine” value in data set [1] (Cohort 5, nominal day 2, nominal hour 24, individual subjects) was 5200 ng/mL and 6760 ng/mL and 4560 ng/mL and 7550 ng/mL and 11900 ng/mL and 7200 ng/mL; in data set [1] (Cohort 5, nominal day 2, nominal hour 48, individual subjects), 706 ng/mL and 961 ng/mL and 775 ng/mL and 2920 ng/mL and 2030 ng/mL and 1860 ng/mL; in data set [1] (Cohort 6, nominal day 1, nominal hour 0 (pre-dose), individual subjects) it was “<LLOQ (0.500) ng/mL”; in data set [1] (Cohort 6, nominal day 1, nominal hour 6, individual subjects), 357000 ng/mL and 97600 ng/mL and 326000 ng/mL and 75900 ng/mL and 182000 ng/mL and 126000 ng/mL; in data set [1] (Cohort 6, nominal day 1, nominal hour 12, individual subjects), 35000 ng/mL and 12100 ng/mL and 104000 ng/mL and 38000 ng/mL and 15200 ng/mL and 19200 ng/mL; in data set [1] (Cohort 6, nominal day 2, nominal hour 24, individual subjects), 6830 ng/mL and 2550 ng/mL and 4060 ng/mL and 7760 ng/mL and 6220 ng/mL and 12700 ng/mL. In addition, the “CONCENTRATION UV4 in human urine” value in data set [1] (Cohort 6, nominal day 2, nominal hour 48, individual subjects) was 1470 ng/mL and 442 ng/mL and 1480 ng/mL and 1390 ng/mL and 830 ng/mL.

For `COCCCCCCCCCN1C[C@H](O)[C@@H](O)[C@H](O)[C@H]1CO` [UV-4, N-(9’-methoxynonyl)-1-deoxynojirimycin], the “Finding at the highest dose” value in data set [2] (150 mg/kg/dose TID for seven days) is “severe GI effects”. The “Finding at 10 mg/kg/dose TID” value in data set [2] (10 mg/kg) is recorded as “diarrhea was still apparent although not adverse”. Besides, the “Time over which UV-4 was quantifiable in pooled urine” value in data set [1] (all doses (3 to 1000 mg), entire collection interval) stood at 48 h. In addition, the dose excreted in data set [1] (3 to 1000 mg dose range, read-out: UV-4 recovery in urine, range of dose group means) lay in the range of 39.8 to 55.1%; in data set [1] (10 to 1000 mg dose range, read-out: Urinary recovery, range of dose group means), 46.4 to 55.1%. Also, the “Renal clearance as share of UV-4 apparent systemic clearance” value in data set [1] (in vivo) is ≥ 50%.
